Like-named read-outs stand apart in the source and are kept apart here.
Legend:
Assay type in all cases: cell-based
[1] = tested on: K-562; assay: NCI60 five-dose screen, Leukemia; conditions: Homo sapiens, K562
[2] = tested on: RPMI-8226; assay: NCI60 five-dose screen, Leukemia; conditions: Homo sapiens
[3] = tested on: SR; assay: NCI60 five-dose screen, Leukemia; conditions: Homo sapiens
[4] = tested on: EKVX; assay: NCI60 five-dose screen, Non-small Cell Lung Cancer; conditions: Homo sapiens
[5] = tested on: NCI-H226; assay: NCI60 five-dose screen, Non-small Cell Lung Cancer; conditions: Homo sapiens
[6] = tested on: NCI-H522; assay: NCI60 five-dose screen, Non-small Cell Lung Cancer; conditions: Homo sapiens
[7] = tested on: COLO 205; assay: NCI60 five-dose screen, Colon Cancer; conditions: Homo sapiens
[8] = tested on: HCT-116; assay: NCI60 five-dose screen, Colon Cancer; conditions: Homo sapiens
[9] = tested on: HCT-15; assay: NCI60 five-dose screen, Colon Cancer; conditions: Homo sapiens
[10] = tested on: HT29; assay: NCI60 five-dose screen, Colon Cancer; conditions: Homo sapiens, HT-29
[11] = tested on: KM12; assay: NCI60 five-dose screen, Colon Cancer; conditions: Homo sapiens
[12] = tested on: SF-268; assay: NCI60 five-dose screen, CNS Cancer; conditions: Homo sapiens
[13] = tested on: SF-295; assay: NCI60 five-dose screen, CNS Cancer; conditions: Homo sapiens
[14] = tested on: SF-539; assay: NCI60 five-dose screen, CNS Cancer; conditions: Homo sapiens
[15] = tested on: SNB-19; assay: NCI60 five-dose screen, CNS Cancer; conditions: Homo sapiens
[16] = tested on: SNB-75; assay: NCI60 five-dose screen, CNS Cancer; conditions: Homo sapiens
[17] = tested on: U251; assay: NCI60 five-dose screen, CNS Cancer; conditions: Homo sapiens, U-251
[18] = tested on: LOX IMVI; assay: NCI60 five-dose screen, Melanoma; conditions: Homo sapiens
[19] = tested on: MDA-MB-435; assay: NCI60 five-dose screen, Melanoma; conditions: Homo sapiens
[20] = tested on: SK-MEL-2; assay: NCI60 five-dose screen, Melanoma; conditions: Homo sapiens
[21] = tested on: SK-MEL-28; assay: NCI60 five-dose screen, Melanoma; conditions: Homo sapiens
[22] = tested on: IGROV1; assay: NCI60 five-dose screen, Ovarian Cancer; conditions: Homo sapiens, IGROV-1
[23] = tested on: OVCAR-3; assay: NCI60 five-dose screen, Ovarian Cancer; conditions: Homo sapiens
[24] = tested on: OVCAR-8; assay: NCI60 five-dose screen, Ovarian Cancer; conditions: Homo sapiens
[25] = tested on: SK-OV-3; assay: NCI60 five-dose screen, Ovarian Cancer; conditions: Homo sapiens
[26] = tested on: 786–0; assay: NCI60 five-dose screen, Renal Cancer; conditions: Homo sapiens
[27] = tested on: A498; assay: NCI60 five-dose screen, Renal Cancer; conditions: Homo sapiens
[28] = tested on: RXF 393; assay: NCI60 five-dose screen, Renal Cancer; conditions: Homo sapiens, RXF 393, Renal Cancer
[29] = tested on: SN12C; assay: NCI60 five-dose screen, Renal Cancer; conditions: Homo sapiens
[30] = tested on: TK-10; assay: NCI60 five-dose screen, Renal Cancer; conditions: Homo sapiens
[31] = tested on: UO-31; assay: NCI60 five-dose screen, Renal Cancer; conditions: Homo sapiens
[32] = tested on: PC-3; assay: NCI60 five-dose screen, Prostate Cancer; conditions: Homo sapiens
[33] = tested on: DU-145; assay: NCI60 five-dose screen, Prostate Cancer; conditions: Homo sapiens
[34] = tested on: HS 578T; assay: NCI60 five-dose screen, Breast Cancer; conditions: Homo sapiens
[35] = tested on: BT-549; assay: NCI60 five-dose screen, Breast Cancer; conditions: Homo sapiens
[36] = tested on: T-47D; assay: NCI60 five-dose screen, Breast Cancer; conditions: Homo sapiens, T47D
[37] = tested on: MDA-MB-468; assay: NCI60 five-dose screen, Breast Cancer; conditions: Homo sapiens
[38] = K-562, Leukemia, five-dose screen, read-out: GI50
[39] = RPMI-8226, Leukemia, five-dose screen, read-out: GI50
[40] = Leukemia, five-dose screen, read-out: GI50
[41] = NCI-H226, Non-small Cell Lung Cancer, five-dose screen, read-out: GI50
[42] = NCI-H522, Non-small Cell Lung Cancer, five-dose screen, read-out: GI50
[43] = COLO 205, Colon Cancer, five-dose screen, read-out: GI50
[44] = HCT-116, Colon Cancer, five-dose screen, read-out: GI50
[45] = HCT-15, Colon Cancer, five-dose screen, read-out: GI50
[46] = HT29, Colon Cancer, five-dose screen, read-out: GI50
[47] = KM12, Colon Cancer, five-dose screen, read-out: GI50
[48] = SF-268, CNS Cancer, five-dose screen, read-out: GI50
[49] = SF-295, CNS Cancer, five-dose screen, read-out: GI50
[50] = SF-539, CNS Cancer, five-dose screen, read-out: GI50
[51] = SNB-19, CNS Cancer, five-dose screen, read-out: GI50
[52] = SNB-75, CNS Cancer, five-dose screen, read-out: GI50
[53] = U251, CNS Cancer, five-dose screen, read-out: GI50
[54] = Melanoma, five-dose screen, read-out: GI50
[55] = MDA-MB-435, Melanoma, five-dose screen, read-out: GI50
[56] = SK-MEL-2, Melanoma, five-dose screen, read-out: GI50
[57] = SK-MEL-28, Melanoma, five-dose screen, read-out: GI50
[58] = IGROV1, Ovarian Cancer, five-dose screen, read-out: GI50
[59] = OVCAR-3, Ovarian Cancer, five-dose screen, read-out: GI50
[60] = OVCAR-8, Ovarian Cancer, five-dose screen, read-out: GI50
[61] = SK-OV-3, Ovarian Cancer, five-dose screen, read-out: GI50
[62] = 786–0, Renal Cancer, five-dose screen, read-out: GI50
[63] = A498, Renal Cancer, five-dose screen, read-out: GI50
[64] = Renal Cancer, five-dose screen, read-out: GI50
[65] = TK-10, Renal Cancer, five-dose screen, read-out: GI50
[66] = UO-31, Renal Cancer, five-dose screen, read-out: GI50
[67] = PC-3, Prostate Cancer, five-dose screen, read-out: GI50
[68] = DU-145, Prostate Cancer, five-dose screen, read-out: GI50
[69] = HS 578T, Breast Cancer, five-dose screen, read-out: GI50
[70] = BT-549, Breast Cancer, five-dose screen, read-out: GI50
[71] = T-47D, Breast Cancer, five-dose screen, read-out: GI50
[72] = MDA-MB-468, Breast Cancer, five-dose screen, read-out: GI50

SMILES: CC[C@]12C=CCN3CC[C@@]4(c5ccc(OC)cc5N(C)[C@H]4[C@@](O)(C(=O)OC)[C@@H]1OC(=O)CCC(=O)N1CCN(Cc4ccc(C(F)(F)F)cc4)CC1)[C@@H]32 [Compound 29]
- GI50 [1, 38]: 3800 nM
- GI50 [2, 39]: 6920 nM
- GI50 [3, 40]: 13800 nM
- GI50 ([4]; Non-small Cell Lung Cancer, five-dose screen, read-out: GI50): 7590 nM
- GI50 [5, 41]: 9770 nM
- GI50 [6, 42]: 12600 nM
- GI50 [7, 43]: 7080 nM
- GI50 [8, 44]: 7760 nM
- GI50 [9, 45]: 10200 nM
- GI50 [10, 46]: 6760 nM
- GI50 [11, 47]: 11800 nM
- GI50 [12, 48]: 5750 nM
- GI50 [13, 49]: 9330 nM
- GI50 [14, 50]: 12900 nM
- GI50 [15, 51]: 11800 nM
- GI50 [16, 52]: 15500 nM
- GI50 [17, 53]: 11200 nM
- GI50 [18, 54]: 13800 nM
- GI50 [19, 55]: 10500 nM
- GI50 [20, 56]: 2820 nM
- GI50 [21, 57]: 11800 nM
- GI50 [22, 58]: 10700 nM
- GI50 [23, 59]: 6460 nM
- GI50 [24, 60]: 12000 nM
- GI50 [25, 61]: 12600 nM
- GI50 [26, 62]: 12300 nM
- GI50 [27, 63]: 12300 nM
- GI50 [28]: 4470 nM
- GI50 [29, 64]: 11500 nM
- GI50 [30, 65]: 12300 nM
- GI50 [31, 66]: 6920 nM
- GI50 [32, 67]: 3390 nM
- GI50 [33, 68]: 11200 nM
- GI50 [34, 69]: 10200 nM
- GI50 [35, 70]: 15100 nM
- GI50 [36, 71]: 5250 nM
- GI50 [37, 72]: 1950 nM

SMILES: CC[C@]12C=CCN3CC[C@@]4(c5ccc(OC)cc5N(C)[C@H]4[C@@](O)(C(=O)OC)[C@@H]1OC(=O)CCC(=O)N1CCN(C(c4ccc(F)cc4)c4ccc(F)cc4)CC1)[C@@H]32 [Compound 31]
- GI50 [1, 38]: 2920 nM
- GI50 [2, 39]: 1420 nM
- GI50 [3, 40]: 1630 nM
- GI50 [5, 41]: 1840 nM
- GI50 [6, 42]: 2040 nM
- GI50 [7, 43]: 2820 nM
- GI50 [8, 44]: 2720 nM
- GI50 [9, 45]: 2450 nM
- GI50 [10, 46]: 1760 nM
- GI50 [11, 47]: 2360 nM
- GI50 [12, 48]: 2980 nM
- GI50 [13, 49]: 2110 nM
- GI50 [14, 50]: 2020 nM
- GI50 [15, 51]: 3580 nM
- GI50 [16, 52]: 2110 nM
- GI50 [17, 53]: 2780 nM
- GI50 [18, 54]: 1800 nM
- GI50 [19, 55]: 2700 nM
- GI50 [20, 56]: 1620 nM
- GI50 [21, 57]: 3260 nM
- GI50 [22, 58]: 2500 nM
- GI50 [23, 59]: 1600 nM
- GI50 [24, 60]: 3180 nM
- GI50 [25, 61]: 2020 nM
- GI50 [26, 62]: 2470 nM
- GI50 [27, 63]: 2380 nM
- GI50 [29, 64]: 1470 nM
- GI50 [30, 65]: 2570 nM
- GI50 [31, 66]: 2320 nM
- GI50 [32, 67]: 1860 nM
- GI50 [33, 68]: 2670 nM
- GI50 [34, 69]: 1740 nM
- GI50 [35, 70]: 1810 nM
- GI50 [36, 71]: 2470 nM
- GI50 [37, 72]: 1200 nM

SMILES: CC[C@]12C=CCN3CC[C@@]4(c5ccc(OC)cc5N(C)[C@H]4[C@@](O)(C(=O)OC)[C@@H]1OC(=O)CCCN1CCN(C(c4ccc(F)cc4)c4ccc(F)cc4)CC1)[C@@H]32 [Compound 25]
- GI50 [1]: 1910 nM
- GI50 ([2]; RPMI-8226): 1950 nM
- GI50 [3]: 1700 nM
- GI50 [4]: 1700 nM
- GI50 ([5]; NCI-H226): 2040 nM
- GI50 ([6]; NCI-H522): 1700 nM
- GI50 ([7]; COLO 205): 1660 nM
- GI50 ([8]; HCT-116): 1780 nM
- GI50 ([9]; HCT-15): 1700 nM
- GI50 [10]: 1910 nM
- GI50 ([11]; KM12): 1780 nM
- GI50 ([12]; SF-268): 1700 nM
- GI50 ([13]; SF-295): 1700 nM
- GI50 ([14]; SF-539): 1660 nM
- GI50 ([15]; SNB-19): 1660 nM
- GI50 ([16]; SNB-75): 5010 nM
- GI50 [17]: 1550 nM
- GI50 [18]: 1740 nM
- GI50 ([19]; MDA-MB-435): 1660 nM
- GI50 ([20]; SK-MEL-2): 2400 nM
- GI50 ([21]; SK-MEL-28): 1740 nM
- GI50 [22]: 1380 nM
- GI50 ([23]; OVCAR-3): 1740 nM
- GI50 ([24]; OVCAR-8): 2090 nM
- GI50 ([25]; SK-OV-3): 1550 nM
- GI50 ([26]; 786-0): 1580 nM
- GI50 ([27]; A498): 5250 nM
- GI50 [29]: 1660 nM
- GI50 ([30]; TK-10): 1510 nM
- GI50 ([31]; UO-31): 1660 nM
- GI50 ([32]; PC-3): 1510 nM
- GI50 ([33]; DU-145): 1780 nM
- GI50 ([34]; Hs-578T): 1780 nM
- GI50 ([35]; BT-549): 1780 nM
- GI50 [36]: 1660 nM
- GI50 ([37]; MDA-MB-468): 1510 nM

— publication PMC11277489, “Novel Piperazine Derivatives of Vindoline as Anticancer Agents” (International Journal of Molecular Sciences, 2024)
